This passage reports X-ray crystal structure results from publication PMC9098866, “Signal transduction in light-oxygen-voltage receptors lacking the active-site glutamine” (Nature Communications, 2022).

Assay [1] has as its target T1, A. sativa phototropin 1 LOV2 (AsLOV2) (Avena sativa, UniProt O49003, Q513L).
T1 construct: gene NPH1-1; LOV2 domain residues 404-546 with flanking A'alpha and Jalpha helices; E. coli expression; N-terminal His6-SUMO tag cut by Senp2, leaving N-terminal GEF extension
As to the kind of experiment: X-ray crystal structure. It counts as binding. The note with it: dark-adapted 0.90 A (7PGZ) and blue-light freeze-trapped 0.98 A (7PH0); light: thioadduct with C450 (covalent, modelled noncovalent); sodium acetate pH 4.6-5.0.

Assay [2] has as its target T2, A. sativa phototropin 1 LOV2 (AsLOV2) (Avena sativa, UniProt O49003).
T2 construct: gene NPH1-1; LOV2 domain residues 404-546 with flanking A'alpha and Jalpha helices; E. coli expression; N-terminal His6-SUMO tag cut by Senp2, leaving N-terminal GEF extension
As to the kind of experiment: X-ray crystal structure. Type of assay: binding. The following applies: dark-adapted 1.00 A (7PGX) and blue-light freeze-trapped 1.09 A (7PGY); light: thioadduct with C450 (covalent, not seen in density, modelled noncovalent); sodium acetate pH 4.6-5.0.

T1 sequence (O49003 entry or part of it Q513L): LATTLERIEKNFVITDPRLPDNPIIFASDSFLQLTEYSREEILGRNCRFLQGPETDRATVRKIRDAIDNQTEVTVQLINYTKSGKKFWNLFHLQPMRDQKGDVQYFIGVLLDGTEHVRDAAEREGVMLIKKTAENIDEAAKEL
T2 sequence (O49003 entry or part of it): as the sequence (O49003 entry or part of it Q513L) above, with L110Q counted along it

In the case of `Cc1cc2nc3c(=O)[nH]c(=O)nc-3n(C[C@H](O)[C@H](O)[C@H](O)COP(=O)(O)O)c2cc1C` [flavin mononucleotide], the X-ray crystal structure entry was “the cofactors were generally modeled as noncovalently bound oxidized flavin mononucleotides” in assay [1]; 7pgx (wild-type, dark), 7pgy (wild-type, light), 7pgz (Q513L, dark), and 7ph0 (Q513L, light) in assay [2].
